The values below are quoted from earlier work in US9290492B2, “Solid forms of antibiotics” (Laboratorios Senosiain S.A. de C.V., priority 2011, dated 2016).

Usually bioavailability stands for dose-corrected exposure relative to a reference, in per cent. As to `C[C@H]1COc2c(N3CCN(C)CC3)c(F)cc3c(=O)c(C(=O)O)cn1c23` [Levofloxacin], under “in vivo”, the bioavailability is 99% and the route of excretion result was “via urine”.
Regarding `COc1c(N2C[C@@H]3CCCN[C@@H]3C2)c(F)cc2c(=O)c(C(=O)O)cn(C3CC3)c12` [moxifloxacin, Moxifloxacin], the route of excretion entry (in vivo) is listed as “via the liver”. In addition, the “excreted as the unchanged drug (total)” value (of an oral or intravenous dose) was “Approximately 45%”. Also, the “excreted as the unchanged drug in feces” value (of an oral or intravenous dose, feces) is recorded as around 25%. The “excreted as the unchanged drug in urine” value (of an oral or intravenous dose, urine) was around 20%.
